Source: patent US20260176300A1, “N-ARYLPYRAZOLE NOD2 AGONISTS AS PROMOTERS OF IMMUNE CHECKPOINT INHIBITOR THERAPY” (THE SCRIPPS RESEARCH INSTITUTE, priority 2022, published 2026)
Where two headings read alike, the source gives them in different places. Values belong to the molecule of their own block, whether it stands above or below them.

Tests used:
[1] = molecular target: T1, NOD1 (Homo sapiens, UniProt Q9Y239); settings: relative to iE-DAP; cited from earlier work
T1 construct: host or cells: HEK-293T-derived HEK-Blue NF-kB/SEAP reporter cells
T1 sequence (Q9Y239 1-953): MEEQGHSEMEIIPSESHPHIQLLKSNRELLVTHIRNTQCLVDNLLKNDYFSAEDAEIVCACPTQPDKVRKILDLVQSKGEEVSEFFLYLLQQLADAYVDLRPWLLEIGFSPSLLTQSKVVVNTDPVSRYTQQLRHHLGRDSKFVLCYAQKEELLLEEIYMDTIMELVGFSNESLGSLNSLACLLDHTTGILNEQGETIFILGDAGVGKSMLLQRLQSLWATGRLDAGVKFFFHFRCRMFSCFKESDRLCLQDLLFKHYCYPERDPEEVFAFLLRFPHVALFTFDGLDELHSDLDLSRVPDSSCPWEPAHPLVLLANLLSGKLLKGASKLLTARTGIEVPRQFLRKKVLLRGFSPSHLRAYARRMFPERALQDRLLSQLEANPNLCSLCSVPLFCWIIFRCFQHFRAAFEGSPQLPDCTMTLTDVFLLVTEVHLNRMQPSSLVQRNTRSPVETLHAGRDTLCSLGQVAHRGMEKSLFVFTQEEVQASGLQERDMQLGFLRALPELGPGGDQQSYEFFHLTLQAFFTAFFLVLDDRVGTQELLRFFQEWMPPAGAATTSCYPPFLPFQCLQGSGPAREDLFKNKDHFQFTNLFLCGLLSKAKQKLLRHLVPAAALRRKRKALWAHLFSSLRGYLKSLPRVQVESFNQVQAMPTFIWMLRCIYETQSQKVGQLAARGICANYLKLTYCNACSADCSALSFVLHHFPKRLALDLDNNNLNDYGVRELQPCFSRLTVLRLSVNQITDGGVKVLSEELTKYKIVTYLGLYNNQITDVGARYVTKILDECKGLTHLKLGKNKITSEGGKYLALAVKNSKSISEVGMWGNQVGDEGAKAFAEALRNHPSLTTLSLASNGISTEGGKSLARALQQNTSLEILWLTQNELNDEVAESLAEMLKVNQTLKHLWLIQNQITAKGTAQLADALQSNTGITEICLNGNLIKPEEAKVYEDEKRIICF

[2] = molecular target: T2, NOD2 (Homo sapiens, UniProt Q9HC29); experiment: NOD2-HEK-Blue NF-κB reporter cell activation assay (NOD2-expressing HEK-293T cells); format: cell-based
T2 construct: host or cells: HEK-293T-derived HEK-Blue NF-kB/SEAP reporter cells
Description: FIG. 1(A-F). Virtual screening for small molecule NOD2 agonists. A, Docked structure of muramyl dipeptide (MDP) in the leucine-rich repeat (LRR) domain of rabbit NOD2 (pdb 5IRM). […] B, Results of virtual docking approach with reported chemical structures related to MDP. C, Workflow of virtual screening in which a library was generated using carboxylic acids appended to the L-Val-D-Glu dipeptide and then docked to the NOD2 LRR domain. D, Desmuramyl MDP (dMDP) structures resulting from the virtual screen that were synthesized for further screening. Chemicals shown as a pure enantiomer were synthesized as a racemic mixture. E, Activation of NOD2-expressing HEK-293T cells treated for 16 h with 10 µM of the indicated compound using a colorimetric assay. F, Dose-dependent activation of NOD2-expressing HEK-293T cells using the indicated compounds. Numbers in parentheses represent calculated negative log of the half maximal effective concentration (pEC50) values. NOD activation assays were analyzed using a one-way ANOVA with Dunnett's multiple comparisons test compared to the DMSO control. pEC50 values were derived by a three-parameter dose-response nonlinear regression. ****P<0.0001.
FIG. 2(A-G). Structure-activity relationship studies of 3,5-dimethyl-N-arylpyrazole NOD2 agonists. A, Structures of 3,5-dimethyl-N-arylpyrazole structures synthesized for SAR studies. B-F, Dose-dependent activation of NOD2-expressing HEK-293T cells using the indicated compounds grouped by similar structural perturbations. Numbers in parentheses represent calculated pEC50 values. G, Graph of calculated pEC50 values vs. calculated partition coefficient (clogP). Dotted lines show equivalent lipophilic ligand efficiency (LLE) values. Red arrow indicates optimization of the TT007 scaffold to TT030. pEC50 values were derived by a three-parameter dose-response nonlinear regression.
(§1) Cell culture. The following cell lines were used and sourced as follows: HEK-Blue NOD2 (InvivoGen, hkb-hnod2), HEK-Blue NOD1 (InvivoGen, hkb-nod1), HEK-Blue Null2 (hkb-null2), and B16-F10 (ATCC CRL-6475). All cell lines were cultured at 37° C. in 5% CO2 in DMEM (ThermoFisher, 11995065) supplemented with 10% fetal bovine serum (FBS), 100 U mL-1 penicillin, and 100 μg mL-1 streptomycin. Cells were maintained at no greater than 70% confluency and subcultured using TrypLE Express. Cell lines were routinely cultured without antibiotics to ensure no bacterial infection and tested for mycoplasma using a Universal Mycoplasma Detection Kit (ATCC 30-1012K). Primary human peripheral mononuclear blood cells (PBMCs) were cultured at 37° C. in 5% CO2 in RPMI 1640 (ThermoFisher, 61870143) supplemented with 10% FBS. All experimental work using human samples was reviewed and approved by the Scripps Research Institutional Review Board (Protocol IRB-21-7816NOD2).
Reporter cell line activation assay. Approximately 24 h before the assay, culture medium for each of the HEK-Blue reporter cell lines was replaced with a 1:1 mixture of DMEM supplemented with 10% FBS and OptiMEM. On the day of the assay, single cell suspensions (150,000 cells/mL) were produced in HEK-Blue detection medium (InvivoGen, hb-det2). Cells were aliquoted at 200 μL per well of a 96-well plate containing 0.2 μL of a 1000× stock of each test compound in DMSO. Cells were then incubated at 37° C. in 5% CO2 for 8-10 h. To measure activity, wells were then gently pipetted up and down to mix the conditioned medium, and absorbance from the colorimetric product of the secreted alkaline phosphatase was measured at 630 nm. In some assays, cells were stimulated for 16 h with compounds as described above in complete DMEM. Then, 20 μL of the conditioned medium was mixed with 180 μL QUANTI-Blue solution (InvivoGen, rep-qbs) and incubated for 2-4 h at 37° C. Activity was then measured by absorbance as described above.

[3] = tested on: HEK-Blue Null2; experiment: NULL HEK-Blue NF-κB reporter cell activation assay (control); format: cell-based; settings: 10 μM, 16 h (FIG. 5)
Procedure: (§2) FIG. 5(A-B). Lead 3,5-dimethyl-N-arylpyrazole TT007 specifically activates NOD2. A-B, Activation of Null (control) and NOD1-expressing HEK-293T cells treated for 16 h with 10 μM of the indicated compound using a colorimetric assay. ****P<0.0001.
as §1, with “All experimental work using human samples was reviewed and approved by the Scripps Research Institutional Review Board (Protocol IRB-21-7816NOD2).” left out
(§3) Reporter cell line activation assay. […] To measure activity, wells were then gently pipetted up and down to mix the conditioned medium, and absorbance from the colorimetric product of the secreted alkaline phosphatase was measured at 630 nm. […] Activity was then measured by absorbance as described above.

[4] = molecular target: T1, NOD1; experiment: NOD1 HEK-Blue NF-κB reporter cell activation assay (NOD1-expressing HEK-293T cells); format: cell-based; settings: 10 μM, 16 h (FIG. 5)
Procedure: as §2
as §1, with “All experimental work using human samples was reviewed and approved by the Scripps Research Institutional Review Board (Protocol IRB-21-7816NOD2).” left out
as §3

[5] = tested on: B16-F10 subcutaneous tumors; experiment: B16-F10 tumor growth assay with anti-PD-L1 co-treatment; format: in vivo, mice; settings: wild-type C57BL/6 mice, 100 μg α-PD-L1 and 100 μg compound i.p. every other day
Procedure: FIG. 3(A-H). NOD2 agonist TT030 activates cytokine production in vitro and improves immune checkpoint inhibitor treatment of tumor growth in vivo. A-D, Measurements of secreted cytokine levels from human peripheral mononuclear blood cells (PMBCs) treated with the indicated compounds for 24 h without or with lipopolysaccharide (LPS). E, Structures of TT030 and its enantiomer (TT030-ent). F, Activation of NOD1- and NOD2-expressing HEK-293T cells with the indicated compounds. C12-iE-DAP is a lipophilic version of the NOD1 agonist, iE-DAP. G, Growth profiles of B16-F10 subcutaneous tumors in wild-type C57BL/6 mice treated with 100 μg α-PD-L1 and 100 μg of the indicated compounds every other day starting at Day 7. H, Growth profiles of B16-F10 subcutaneous tumors in wild-type or Nod2^−/− C57BL/6 mice treated with 100 μg α-PD-L1 and 100 μg TT030 every other day starting at Day 7. Cytokine secretion assays and NOD activation assays were analyzed using a one-way ANOVA with Dunnett's multiple comparisons test compared to the DMSO control. Longitudinal tumor growth assays were analyzed using linear mixed-effects model analysis on the log transformed data. ns=not significant, *P<0.05, **P<0.01, ***P<0.001, ****P<0.0001.
Animals. Specific pathogen-free, eight-week old male C57BL/6J (B6, 000664) and B6.129S1—Nod2^tm1Flv/J (Nod2^−/−, 005763 from Flavell Lab, Yale School of Medicine) were obtained from The Jackson Laboratory. Animals were housed in autoclaved caging with SaniChip bedding and enrichment for nest building on a 12-hour light/dark cycle. Animals were provided gamma-irradiated chow (LabDiet, 5053) and sterile drinking water ad libitum. Animal care and experiments were conducted in accordance with NIH guidelines and approved by the Institutional Animal Care and Use Committee at Scripps Research (Protocol AUP-21-095).
Tumor growth assay. B16-F10 cells were subcultured on the day prior to harvesting for tumor inoculation. On the day of injection, cells were harvested using TrypLE Express, washed and resuspended in cold PBS, and counted with a hemocytometer. Cells were then resuspended at 2×10^6 cells mL^−1 in PBS and mixed 1:1 with Matrigel matrix (Corning; growth factor reduced, 356231). Cell suspensions were kept on ice prior to injection. Animals were anesthetized using 3% isoflurane, and their right flank was shaved with hair clippers. Animals were then subcutaneously injected with 100 μL of the cell suspension on their mid-right flank (1×10^5 cells per injection). Once tumors were established at roughly 25-100 mm^3, tumor volume was measured every other day. Digital calipers were used to measure the length and width of each tumor, and tumor volume was calculated as length×[…], where width was the smaller of the two measurements. […]

T2 sequence (Q9HC29 whole entry): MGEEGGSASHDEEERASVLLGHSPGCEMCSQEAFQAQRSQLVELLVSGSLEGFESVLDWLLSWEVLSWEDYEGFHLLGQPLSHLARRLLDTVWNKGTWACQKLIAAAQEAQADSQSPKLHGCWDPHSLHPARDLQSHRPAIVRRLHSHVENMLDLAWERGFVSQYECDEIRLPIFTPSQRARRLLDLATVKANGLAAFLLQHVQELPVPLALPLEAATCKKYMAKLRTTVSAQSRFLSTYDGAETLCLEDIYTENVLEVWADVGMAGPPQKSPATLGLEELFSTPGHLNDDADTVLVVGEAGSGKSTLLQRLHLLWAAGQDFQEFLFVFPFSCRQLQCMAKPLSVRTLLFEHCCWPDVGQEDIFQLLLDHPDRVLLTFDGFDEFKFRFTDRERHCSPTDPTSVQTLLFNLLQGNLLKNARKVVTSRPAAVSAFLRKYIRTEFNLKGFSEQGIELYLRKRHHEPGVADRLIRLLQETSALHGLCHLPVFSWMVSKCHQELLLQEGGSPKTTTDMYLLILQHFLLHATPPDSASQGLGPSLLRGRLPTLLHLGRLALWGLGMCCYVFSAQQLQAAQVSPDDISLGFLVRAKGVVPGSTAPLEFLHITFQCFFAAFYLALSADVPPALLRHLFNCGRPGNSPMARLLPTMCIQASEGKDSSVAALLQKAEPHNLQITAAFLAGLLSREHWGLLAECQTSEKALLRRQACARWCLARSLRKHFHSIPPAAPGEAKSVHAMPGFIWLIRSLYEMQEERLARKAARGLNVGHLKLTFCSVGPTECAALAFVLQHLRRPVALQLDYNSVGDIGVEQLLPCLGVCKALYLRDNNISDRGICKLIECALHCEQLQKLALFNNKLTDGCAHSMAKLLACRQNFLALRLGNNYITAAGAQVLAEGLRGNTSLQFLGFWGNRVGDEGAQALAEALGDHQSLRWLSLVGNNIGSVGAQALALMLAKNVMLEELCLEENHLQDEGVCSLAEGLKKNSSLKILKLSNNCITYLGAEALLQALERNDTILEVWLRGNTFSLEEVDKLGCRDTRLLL

Compound: CCCCCCCCCCCC(=O)N[C@H](CCC(=O)NC(CCCC(N)C(=O)O)C(=O)O)C(=O)O (some centres unmarked) [C12-iE-DAP]
Greater activation of NOD1-dependent NF-κB reporter [1]: ~100 fold

Activation of NOD2-expressing HEK-293T cells, colorimetric assay ([2]; 10 µM, 16 h (FIG. 1E)): active | EC50 ([2]; FIG. 1F, read-out: pEC50, dose-dependent NOD2 activation (converted)): ~1 µM | EC50 ([2]; calculated, three-parameter dose-response nonlinear regression, read-out: pEC50 (μM), dose-dependent activation of NOD2-expressing HEK-293T cells (converted)): 1 µM | Activation of NOD1 HEK-Blue NF-κB reporter cells [4]: inactive
Compound: CCOC(=O)CC[C@@H](NC(=O)[C@@H](NC(=O)c1c(C)nn(-c2ccc(F)cc2)c1C)C(C)C)C(=O)OCC [TT007, Diethyl (1-(4-fluorophenyl)-3,5-dimethyl-1H-pyrazole-4-carbonyl)-L-valyl-D-glutamate]
Activation of NULL HEK-Blue NF-κB reporter cells [3]: inactive

NOD2 activity in the HEK-Blue in vitro assay ([2]; FIG. 3F): NOD2-inactive
Compound: CCOC(=O)CC[C@H](NC(=O)[C@H](NC(=O)c1c(C)nn(-c2cc[nH]c(=O)c2)c1C)C(C)C)C(=O)OCC [TT030-ent, Diethyl (3,5-dimethyl-1-(2-oxo-1,2-dihydropyridin-4-yl)-1H-pyrazole-4-carbonyl)-D-valyl-L-glutamate]
B16 tumor growth over time [5]: not
